We go through 26 molecules from US10259808B2 (Genentech, Inc., priority 2015, dated 2019).

Where a name gives a salt, the structure may show the parent alone.

The assay concerns the target T1, RORc ligand binding domain (Homo sapiens, UniProt P51449).
T1 sequence (P51449 269-508 limits assumed): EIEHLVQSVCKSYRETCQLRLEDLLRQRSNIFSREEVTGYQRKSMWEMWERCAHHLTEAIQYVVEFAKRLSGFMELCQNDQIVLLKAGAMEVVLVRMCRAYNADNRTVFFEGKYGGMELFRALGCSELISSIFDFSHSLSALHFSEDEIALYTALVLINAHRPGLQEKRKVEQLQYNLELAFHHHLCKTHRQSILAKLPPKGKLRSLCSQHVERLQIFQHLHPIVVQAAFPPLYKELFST
The assay can be described thus: In vitro RORc ligand binding assay (25-[3H]hydroxycholesterol displacement).
For orientation: IC50 means the concentration that inhibits the measured activity by half. A high value points to a need for much substance. Regarding `C[C@H]1CC[C@H](c2ccccc2)S(=O)(=O)N1Cc1cc(F)c(C2(NCc3cocn3)CCOCC2)cc1F` [Example 75, 4-[2,5-difluoro-4-[[(3S,6R)-3-methyl-1,1-dioxo-6-phenyl-thiazinan-2-yl]methyl]phenyl]-N-(oxazol-4-ylmethyl)tetrahydropyran-4-amine], the IC50 was 0.0064 µM. This lies in the single-digit nanomolar range.

Turning to `Cc1cc(CNC2(c3ccc(CN4[C@@H](C)CC[C@H](c5ccccc5)S4(=O)=O)c(F)c3)CCOCC2)no1` [Example 76, 4-[3-fluoro-4-[[(3S,6R)-3-methyl-1,1-dioxo-6-phenyl-thiazinan-2-yl]methyl]phenyl]-N-[(5-methylisoxazol-3-yl)methyl]tetrahydropyran-4-amine], the IC50 came to 0.0046 µM.

As for `C[C@H]1CC[C@H](c2ccccc2)S(=O)(=O)N1Cc1ccc(C2(NCc3ccc[nH]c3=O)CCOCC2)cc1F` [Example 77, 3-[[[4-[3-fluoro-4-[[(3S,6R)-3-methyl-1,1-dioxo-6-phenyl-thiazinan-2-yl]methyl]phenyl]tetrahydropyran-4-yl]amino]methyl]-1H-pyridin-2-one], the IC50 came out at 0.0872 µM.

Regarding `Cc1nc(CNC2(c3ccc(CN4[C@@H](C)CC[C@H](c5ccccc5)S4(=O)=O)c(F)c3)CCOCC2)co1` [Example 78, 4-[3-fluoro-4-[[(3S,6R)-3-methyl-1,1-dioxo-6-phenyl-thiazinan-2-yl]methyl]phenyl]-N-[(2-methyloxazol-4-yl)methyl]tetrahydropyran-4-amine; hydrochloride], the IC50 was 0.0302 µM.

Molecule `C[C@H]1CC[C@H](c2ccccc2)S(=O)(=O)N1Cc1ccc(C2(N(C)Cc3nnc[nH]3)CCOCC2)cc1F` [Example 79, 4-[3-fluoro-4-[[(3S,6R)-3-methyl-1,1-dioxo-6-phenyl-thiazinan-2-yl]methyl]phenyl]-N-methyl-N-(4H-1,2,4-triazol-3-ylmethyl)tetrahydropyran-4-amine] gave an IC50 of 0.0771 µM. This IC50 lies about 2.6-fold higher than the previous one.

Take `C[C@H]1CC[C@H](c2ccccc2)S(=O)(=O)N1Cc1cc(F)c(C2(NC(=O)c3cocn3)CCOCC2)cc1F` [Example 80, N-[4-[2,5-difluoro-4-[[(3S,6R)-3-methyl-1,1-dioxo-6-phenyl-thiazinan-2-yl]methyl]phenyl]tetrahydropyran-4-yl]oxazole-4-carboxamide]: the IC50 was determined as 0.0048 µM.

With `C[C@H]1CC[C@H](c2ccccc2)S(=O)(=O)N1Cc1cc(F)c(C2(N(C)Cc3cocn3)CCOCC2)cc1F` [Example 81, 4-[2,5-difluoro-4-[[(3S,6R)-3-methyl-1,1-dioxo-6-phenyl-thiazinan-2-yl]methyl]phenyl]-N-methyl-N-(oxazol-4-ylmethyl)tetrahydropyran-4-amine], the IC50 was found to be 0.0088 µM.

Molecule `C[C@H]1CC[C@H](c2ccccc2)S(=O)(=O)N1Cc1cc(F)c(C2(NCc3cc(=O)[nH]o3)CCOCC2)cc1F` [Example 82, 5-[[[4-[2,5-difluoro-4-[[(3S,6R)-3-methyl-1,1-dioxo-6-phenyl-thiazinan-2-yl]methyl]phenyl]tetrahydropyran-4-yl]amino]methyl]isoxazol-3-one] showed an IC50 of 0.0057 µM.

`C[C@H]1CC[C@H](c2ccccc2)S(=O)(=O)N1Cc1cc(F)c(C2(NCc3ncco3)CCOCC2)cc1F` [Example 83, 4-[2,5-difluoro-4-[[(3S,6R)-3-methyl-1,1-dioxo-6-phenyl-thiazinan-2-yl]methyl]phenyl]-N-(oxazol-2-ylmethyl)tetrahydropyran-4-amine] yielded an IC50 of 0.0037 µM.

The molecule `C[C@H]1CC[C@H](c2ccccc2)S(=O)(=O)N1Cc1cc(F)c(C2(NCc3cc[nH]n3)COC2)cc1F` [Example 84, 3-[2,5-difluoro-4-[[(3S,6R)-3-methyl-1,1-dioxo-6-phenyl-thiazinan-2-yl]methyl]phenyl]-N-(1H-pyrazol-3-ylmethyl)oxetan-3-amine] yielded an IC50 of 0.0057 µM. This IC50 is about 1.5-fold higher than that of the molecule before.

Turning to `C[C@H]1CC[C@H](c2ccccc2)S(=O)(=O)N1Cc1cc(F)c(C2(NCc3cocn3)COC2)cc1F` [Example 85, 3-[2,5-difluoro-4-[[(3S,6R)-3-methyl-1,1-dioxo-6-phenyl-thiazinan-2-yl]methyl]phenyl]-N-(oxazol-4-ylmethyl)oxetan-3-amine], the IC50 is 0.0041 µM.

`Cc1cc(CNC2(c3cc(F)c(CN4[C@@H](C)CC[C@H](c5ccccc5)S4(=O)=O)cc3F)CCOCC2)no1` [Example 86, 4-[2,5-difluoro-4-[[(3S,6R)-3-methyl-1,1-dioxo-6-phenyl-thiazinan-2-yl]methyl]phenyl]-N-[(5-methylisoxazol-3-yl)methyl]tetrahydropyran-4-amine] came in with an IC50 of 0.005 µM.

`C[C@H]1CC[C@H](c2ccccc2)S(=O)(=O)N1Cc1cc(F)c(C2(NCc3ncnn3C)COC2)cc1F` [Example 87, 3-[2,5-difluoro-4-[[(3S,6R)-3-methyl-1,1-dioxo-6-phenyl-thiazinan-2-yl]methyl]phenyl]-N-[(2-methyl-1,2,4-triazol-3-yl)methyl]oxetan-3-amine]: the IC50 is 0.008 µM.

In turn, `C[C@H]1CC[C@H](c2ccccc2)S(=O)(=O)N1Cc1cc(F)c(C2(NCc3ncco3)COC2)cc1F` [Example 88, 3-[2,5-difluoro-4-[[(3S,6R)-3-methyl-1,1-dioxo-6-phenyl-thiazinan-2-yl]methyl]phenyl]-N-(oxazol-2-ylmethyl)oxetan-3-amine] returned an IC50 of 0.0082 µM. This IC50 and that of the molecule before are within 1.5-fold of each other.

In turn, `C[C@H]1CC[C@H](c2ccccc2)S(=O)(=O)N1Cc1cc(F)c(C2(NCc3cnccn3)COC2)cc1F` [Example 89, 3-[2,5-difluoro-4-[[(3S,6R)-3-methyl-1,1-dioxo-6-phenyl-thiazinan-2-yl]methyl]phenyl]-N-(pyrazin-2-ylmethyl)oxetan-3-amine] gave an IC50 of 0.0071 µM.

The molecule `CNc1nnc(C2(c3cc(F)c(CN4[C@@H](C)CC[C@H](c5ccccc5)S4(=O)=O)cc3F)CCOCC2)o1` [Example 90, 5-[4-[2,5-difluoro-4-[[(3S,6R)-3-methyl-1,1-dioxo-6-phenyl-thiazinan-2-yl]methyl]phenyl]tetrahydropyran-4-yl]-N-methyl-1,3,4-oxadiazol-2-amine] gave an IC50 of 0.0137 µM. This IC50 is about 1.9-fold higher than that of the molecule before.

With `C[C@H]1CC[C@H](c2ccccc2)S(=O)(=O)N1Cc1cc(F)c(C2(NCc3ccn(C)n3)CCOCC2)cc1F` [Example 91, 4-[2,5-difluoro-4-[[(3S,6R)-3-methyl-1,1-dioxo-6-phenyl-thiazinan-2-yl]methyl]phenyl]-N-[(1-methylpyrazol-3-yl)methyl]tetrahydropyran-4-amine], the IC50 came out at 0.0826 µM.

`C[C@H]1CC[C@H](c2ccccc2)S(=O)(=O)N1Cc1cc(F)c(C2(NCc3nnc[nH]3)CCOCC2)cc1F` [Example 92, 4-[2,5-difluoro-4-[[(3S,6R)-3-methyl-1,1-dioxo-6-phenyl-thiazinan-2-yl]methyl]phenyl]-N-(4H-1,2,4-triazol-3-ylmethyl)tetrahydropyran-4-amine]: the IC50 was found to be 0.0236 µM.

In the case of `Cc1cc(C(=O)NC2(c3cc(F)c(CN4[C@@H](C)CC[C@H](c5ccccc5)S4(=O)=O)cc3F)CCOCC2)no1` [Example 93, N-[4-[2,5-difluoro-4-[[(3,6R)-3-methyl-1,1-dioxo-6-phenyl-thiazinan-2-yl]methyl]phenyl]tetrahydropyran-4-yl]-5-methyl-isoxazole-3-carboxamide], the IC50 came out at 0.044 µM.

Molecule `C[C@H]1CC[C@H](c2ccccc2)S(=O)(=O)N1Cc1cc(F)c(C2(NC(=O)Cc3ccon3)COC2)cc1F` [Example 94, N-[3-[2,5-difluoro-4-[[(3S,6R)-3-methyl-1,1-dioxo-6-phenyl-thiazinan-2-yl]methyl]phenyl]oxetan-3-yl]-2-isoxazol-3-yl-acetamide] came in with an IC50 of 0.0179 µM.

With `Cc1cc(CNC2(c3cc(F)c(CN4[C@@H](C)CC[C@H](c5ccccc5)S4(=O)=O)cc3F)COC2)no1` [Example 95, 3-[2,5-difluoro-4-[[(3S,6R)-3-methyl-1,1-dioxo-6-phenyl-thiazinan-2-yl]methyl]phenyl]-N-[(5-methylisoxazol-3-yl)methyl]oxetan-3-amine], the IC50 worked out at 0.0206 µM.

Regarding `C[C@H]1CC[C@H](c2ccccc2)S(=O)(=O)N1Cc1cc(F)c(C2(NC(=O)c3cocn3)COC2)cc1F` [Example 96, N-[3-[2,5-difluoro-4-[[(3S,6R)-3-methyl-1,1-dioxo-6-phenyl-thiazinan-2-yl]methyl]phenyl]oxetan-3-yl]oxazole-4-carboxamide], the IC50 turned out to be 0.0356 µM.

`C[C@H]1CC[C@H](c2ccccc2)S(=O)(=O)N1Cc1cc(F)c(C2(NC(=O)c3ccon3)COC2)cc1F` [Example 97, N-[3-[2,5-difluoro-4-[[(3S,6R)-3-methyl-1,1-dioxo-6-phenyl-thiazinan-2-yl]methyl]phenyl]oxetan-3-yl]isoxazole-3-carboxamide] registered an IC50 of 0.0224 µM.

The molecule `C[C@H]1CC[C@H](c2ccccc2)S(=O)(=O)N1Cc1cc(F)c(C2(N3C[C@H](CO)OC3=O)CCOCC2)cc1F` [Example 98, (5R)-3-[4-[2,5-difluoro-4-[[(3S,6R)-3-methyl-1,1-dioxo-6-phenyl-thiazinan-2-yl]methyl]phenyl]tetrahydropyran-4-yl]-5-(hydroxymethyl)oxazolidin-2-one] showed an IC50 of 0.0676 µM.

Take `C[C@H]1CC[C@H](c2ccccc2)S(=O)(=O)N1Cc1cc(F)c(C2(N3C[C@@H](CO)OC3=O)CCOCC2)cc1F` [Example 99, (5S)-3-[4-[2,5-difluoro-4-[[(3S,6R)-3-methyl-1,1-dioxo-6-phenyl-thiazinan-2-yl]methyl]phenyl]tetrahydropyran-4-yl]-5-(hydroxymethyl)oxazolidin-2-one]: the IC50 was found to be 0.0587 µM.

Molecule `C[C@H]1CC[C@H](c2ccccc2)S(=O)(=O)N1Cc1cc(F)c(C2(NCc3cnco3)COC2)cc1F` [Example 100, 3-[2,5-difluoro-4-[[(3S,6R)-3-methyl-1,1-dioxo-6-phenyl-thiazinan-2-yl]methyl]phenyl]-N-(oxazol-5-ylmethyl)oxetan-3-amine] came in with an IC50 of 0.0341 µM. Against the preceding molecule, the IC50 is about 1.7-fold lower.
